Reference: PubChem BioAssay AID1996
≈ marks a conversion by molar mass, not a printed value.

Conditions: buffer; pH 7.4; 200.0 µM

solubility kinetic	SMILES
> 42.8 µg/mL	Cc1cccc(OCC(=O)O/N=C(\N)c2ccncc2)c1
14.9 µg/mL (≈ 45.2 µM)	COc1ccc(C2c3ccsc3CCN2C(=O)C(C)(C)C)cc1 (centres undefined)
> 49.9 µg/mL	CCOC(=O)C1CCN(CCC(=O)Nc2cc(C)cc(C)c2)CC1
15.7 µg/mL (≈ 44.5 µM)	Cc1cccc(N2CCN(C(=O)c3ccc4c(c3)OCCO4)CC2)c1C
34.5 µg/mL (≈ 111 µM)	O=C(CCCc1c[nH]c2ccccc12)NCc1ccccc1F
41.4 µg/mL (≈ 141 µM)	CC(O)Cn1c(N2CCCC2)nc2c1c(=O)[nH]c(=O)n2C (centres undefined)
< 0.6 µg/mL	CCc1cc(C(=O)OC)c(NC(=O)c2ccoc2C)s1
45.6 µg/mL (≈ 128 µM)	Cc1cccc(C)c1NC(=O)NC1(C(=O)N2CCCCC2)CCCCC1
< 0.2 µg/mL	CC(C)(C)c1cc(NC(=O)Nc2ccccc2OC(F)(F)F)no1
52.9 µg/mL (≈ 126 µM)	O=C(COC(=O)CNC(=O)c1ccc(Cl)c([N+](=O)[O-])c1)NC(=O)c1ccccc1
3.5 µg/mL (≈ 12.6 µM)	CC(=O)c1c[nH]c(C(=O)NCc2ccccc2Cl)c1
16.2 µg/mL (≈ 47.3 µM)	CN(CC(=O)NCC1CCCCC1)S(=O)(=O)c1ccc(F)cc1
> 46.9 µg/mL	Cc1cccc(CC(=O)N2CCN(C(=O)c3ccco3)CC2)c1
> 30.2 µg/mL	CN1/C(=C\C=O)C(C)(C)c2ccccc21
6.2 µg/mL (≈ 18.5 µM)	COc1ccc(/C=N/OC(=O)Nc2ccc(Cl)cc2)c(OC)c1
51.2 µg/mL (≈ 133 µM)	O=C(CNC(=O)c1ccc(Cl)cc1Cl)OCCOc1ccccc1F
> 42.8 µg/mL	C/C(=C\c1ccccc1F)C(=O)c1c(C)cc(C)[nH]c1=O
42.3 µg/mL (≈ 144 µM)	CCC1CCc2sc(C(=O)NCC3CCCO3)cc2C1 (centres undefined)
52.5 µg/mL	CCN(CC)CCNC(=O)c1cc(S(C)(=O)=O)ccc1OC.Cl
> 54.2 µg/mL	O=C(COc1ccc(Oc2ccccc2)cc1)NC1CCS(=O)(=O)C1 (centres undefined)

solubility kinetic	SMILES
29.6 µg/mL (≈ 108 µM)	CN=C(Nc1ccc(C(=O)OC)s1)c1ccccc1
12.9 µg/mL (≈ 29.4 µM)	CC1CN(S(=O)(=O)c2cccc(C(=O)OCC(=O)N3CCCCCC3)c2)CC(C)O1 (centres undefined)
46.9 µg/mL (≈ 142 µM)	Cc1ccc(OC(C)C(=O)N(C)Cc2ccccc2)c([N+](=O)[O-])n1 (centres undefined)
42.6 µg/mL (≈ 143 µM)	O=C(c1ccc(F)cc1)N(c1ccccn1)C1CCCCC1
31.7 µg/mL (≈ 96.3 µM)	COc1cccc(/C(N)=N/OC(=O)Cc2ccccc2[N+](=O)[O-])c1
2.5 µg/mL (≈ 7.88 µM)	Cc1ccc(C(=O)Nc2cccc(C(O)c3ccccc3)c2)cc1 (centres undefined)
28.5 µg/mL (≈ 127 µM)	O=C(/C=C/c1cccnc1)c1ccc(O)cc1
6.1 µg/mL (≈ 18.5 µM)	CC(C)c1nc(SCC(=O)NC2CCCC2)c2ccccc2n1
> 50.2 µg/mL	CC1CCCN(S(=O)(=O)c2cc3c4c(c2)CCN4C(=O)CC3)C1 (centres undefined)
3.4 µg/mL (≈ 10.5 µM)	COc1ccc(C(=O)c2sc(Nc3ccccc3)nc2C)cc1
> 53.5 µg/mL	COc1ccc(S(=O)(=O)NCCC(=O)OCC(=O)NC2CC2)cc1
4 µg/mL (≈ 11.7 µM)	COc1ccc(NC(=O)CC2Oc3ccccc3NC2=O)c(OC)c1 (centres undefined)
> 45.6 µg/mL	Cc1ccc2nsnc2c1NC(=O)c1ccc([N+](=O)[O-])o1
7.6 µg/mL (≈ 22.7 µM)	N#Cc1c(-c2ccc(Cl)cc2)c2c([nH]c1=O)-c1ccccc1OC2
> 41.4 µg/mL	Cc1ccc(NC(=O)NCc2ccccn2)cc1Cl
49.3 µg/mL (≈ 150 µM)	O=C(CCc1nc(-c2ccccc2Cl)no1)Nc1cccnc1
14.3 µg/mL (≈ 44.9 µM)	COc1ccc(OCC(=O)Nc2nc3c(s2)CCCC3)cc1
7.2 µg/mL (≈ 22.4 µM)	Cc1ccc(C(=O)C(C)OC(=O)Cc2c[nH]c3ccccc23)cc1 (centres undefined)
> 46.4 µg/mL	Cn1c(CC(=O)NNC(=O)c2cccnc2)nc2ccccc21
52.1 µg/mL (≈ 137 µM)	CC1(C(=O)Nc2nc3ccc(S(C)(=O)=O)cc3s2)CC1(Cl)Cl (centres undefined)

solubility kinetic	SMILES
45.1 µg/mL (≈ 137 µM)	COc1ccccc1OCCC(=O)NCc1ccc2c(c1)OCO2
2.3 µg/mL (≈ 7.44 µM)	Clc1ccc(N2CCN(c3ccnc(Cl)n3)CC2)cc1
21.2 µg/mL (≈ 61.2 µM)	COc1ccc(Nc2nc(N)c([N+](=O)[O-])c(N3CCOCC3)n2)cc1
> 32.3 µg/mL	Nn1c(C2CCC2)nc2ccccc2c1=O
35.6 µg/mL (≈ 147 µM)	Cc1noc(C(=O)NC2CCCCC2)c1Cl
42.8 µg/mL (≈ 119 µM)	O=C(CN1C(=O)NC2(CCCCC2)C1=O)NCc1ccc2c(c1)OCO2
35.3 µg/mL (≈ 118 µM)	CC(=O)NCCNC(=O)c1ccc(-n2c(C)ccc2C)cc1
> 48.8 µg/mL	CN(C)c1ccc(/C=N/NC(=O)CNC(=O)c2ccncc2)cc1
> 43.1 µg/mL	COc1ccc(OC)c(NC(=O)NCc2cccnc2)c1
4.7 µg/mL (≈ 14.9 µM)	O=[N+]([O-])c1ccc(OCc2cnc(Cl)s2)c([N+](=O)[O-])c1
0.7 µg/mL (≈ 2.11 µM)	O=C(Nc1ccccc1F)c1cc(-c2ccco2)nc2ccccc12
37 µg/mL (≈ 120 µM)	CC(C(=O)N1CCCC1)N(C)CC(=O)Nc1cccc(F)c1 (centres undefined)
33 µg/mL (≈ 120 µM)	FC(F)(F)c1ccccc1NC(=S)N1CCCC1
< 0.2 µg/mL	Cc1ccc(Nc2nc(-c3ccncc3)nc3ccccc23)cc1
42.2 µg/mL (≈ 146 µM)	O=C(c1ccccc1Cl)N1CCC(n2cccc2)CC1
> 43.7 µg/mL	O=C(CCCn1cnc([N+](=O)[O-])n1)Nc1cccc(O)c1
1.7 µg/mL (≈ 5.15 µM)	CCOCCCNC(=O)c1cc2c(=O)[nH]c3ccccc3c2s1
> 49.7 µg/mL	Cc1ccc(NC(=O)COC(=O)Cn2ccc(=O)[nH]c2=O)cc1C
0.4 µg/mL (≈ 1.11 µM)	COc1ccc(C(=O)Nc2ccc(NC(=O)Cc3ccccc3)cn2)cc1
